Experimental data taken from patent US11541055B2, “Inhibitors of human immunodeficiency virus replication” (ViiV Healthcare UK (No. 5) LIMITED, priority 2018, dated 2023).

Key:
[1] = Compound cytotoxicity, XTT-based colorimetric assay; assay type: cell-based; conditions: human; uninfected MT2 cells, day 4, XTT
Method in brief: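 Run under the antiviral-assay protocol but without virus. Viability was read on day 4 and CC50 values were derived from the readout.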

[2] = system: recombinant NL4-3 virus (Renilla luciferase) in MT-2 cells; assay: HIV cell culture assay (antiviral activity, luciferase readout); assay type: cell-based; conditions: Renilla, NL43
Method in brief: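 MT-2 cells were infected with recombinant NL4-3 virus carrying Renilla luciferase in place of part of nef. Cells were cultured 4–5 days with serially diluted compound, and luciferase was measured with a live-cell substrate. EC50 was calculated from the median effect equation.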

In the case of `COc1cnc(-c2ccc3c(=O)n(-c4ccc(Cl)c5c(NS(C)(=O)=O)nn(C)c45)c([C@H](Cc4cc(F)cc(F)c4)NC(=O)Cn4nc(C(F)F)c5c4C(F)(F)[C@@H]4C[C@H]54)nc3c2)nc1` (atropisomer, axis not shown; (P)) [Example 34, N—((S)-1-((3P)-3-(4-chloro-1-methyl-3-(methylsulfonamido)-1H-indazol-7-yl)-7-(5-methoxypyrimidin-2-yl)-4-oxo-3,4-dihydroquinazolin-2-yl)-2-(3,5-difluorophenyl)ethyl)-2-((3bS,4aR)-3-(difluoromethyl)-5,5-difluoro-3b,4,4a,5-tetrahydro-1H-cyclopropa[3,4]cyclopenta[1,2-c]pyrazol-1-yl)acetamide], the CC50 at 4 days [1] is reported as > 500 nM and the EC50 [2] is reported as 0.058 nM.

For `Cn1nc(NS(C)(=O)=O)c2c(Cl)ccc(-n3c([C@H](Cc4cc(F)cc(F)c4)NC(=O)Cn4nc(C(F)F)c5c4C(F)(F)[C@@H]4C[C@H]54)nc4cc(-c5ccnc(C6CCC6)n5)ccc4c3=O)c21` (atropisomer, axis not shown; (P)) [Example 76, N—((S)-1-((3P)-3-(4-chloro-1-methyl-3-(methylsulfonamido)-1H-indazol-7-yl)-7-(2-cyclobutylpyrimidin-4-yl)-4-oxo-3,4-dihydroquinazolin-2-yl)-2-(3,5-difluorophenyl)ethyl)-2-((3bS,4aR)-3-(difluoromethyl)-5,5-difluoro-3b,4,4a,5-tetrahydro-1H-cyclopropa[3,4]cyclopenta[1,2-c]pyrazol-1-yl)acetamide], the CC50 at 4 days [1] was > 500 nM and the EC50 [2] was 0.18 nM.

With `Cc1ncc(-c2ccc3c(=O)n(-c4ccc(Cl)c5c(NS(C)(=O)=O)nn(CC(F)(F)F)c45)c([C@H](Cc4cc(F)cc(F)c4)NC(=O)Cn4nc(C(F)F)c5c4C(F)(F)[C@@H]4C[C@H]54)nc3c2)s1` (atropisomer, axis not shown) [Example 114] the CC50 at 4 days [1] was > 500 nM and the EC50 [2] was 0.15 nM.

In the case of `O=C(Cn1nc(C(F)F)c2c1C(F)(F)[C@@H]1C[C@H]21)N[C@@H](Cc1cc(F)cc(F)c1)c1nc2cc(-c3cccnn3)ccc2c(=O)n1-c1ccc(Cl)c2c(NS(=O)(=O)C3CC3)nn(CC(F)F)c12` (atropisomer, axis not shown; (P)) [Example 89, N—((S)-1-((3P)-3-(4-chloro-3-(cyclopropanesulfonamido)-1-(2,2-difluoroethyl)-1H-indazol-7-yl)-4-oxo-7-(pyridazin-3-yl)-3,4-dihydroquinazolin-2-yl)-2-(3,5-difluorophenyl)ethyl)-2-((3bS,4aR)-3-(difluoromethyl)-5,5-difluoro-3b,4,4a,5-tetrahydro-1H-cyclopropa[3,4]cyclopenta[1,2-c]pyrazol-1-yl)acetamide], the CC50 at 4 days [1] is reported as > 500 nM and the EC50 [2] is reported as 0.075 nM.

With `Cn1nc(NS(C)(=O)=O)c2c(Cl)ccc(-n3c([C@H](Cc4cc(F)cc(F)c4)NC(=O)Cn4nc(C(F)F)c5c4C(F)(F)[C@@H]4C[C@H]54)nc4cc(-c5ccccc5S(=O)(=O)C(C)(C)C)ccc4c3=O)c21` [Example 32, N—((S)-1-(7-(2-(tert-butylsulfonyl)phenyl)-(3P)-3-(4-chloro-1-methyl-3-(methylsulfonamido)-1H-indazol-7-yl)-4-oxo-3,4-dihydroquinazolin-2-yl)-2-(3,5-difluorophenyl)ethyl)-2-((3bS,4aR)-3-(difluoromethyl)-5,5-difluoro-3b,4,4a,5-tetrahydro-1H-cyclopropa[3,4]cyclopenta[1,2-c]pyrazol-1-yl)acetamide] the CC50 at 4 days [1] was > 500 nM and the EC50 [2] was 0.11 nM.

For `COc1cnc(C)nc1-c1ccc2c(=O)n(-c3ccc(Cl)c4c(NS(C)(=O)=O)nn(C)c34)c([C@H](Cc3cc(F)cc(F)c3)NC(=O)Cn3nc(C(F)F)c4c3C(F)(F)[C@@H]3C[C@H]43)nc2c1` (atropisomer, axis not shown; (P)) [Example 9, N—((S)-1-((3P)-3-(4-chloro-1-methyl-3-(methylsulfonamido)-1H-indazol-7-yl)-7-(5-methoxy-2-methylpyrimidin-4-yl)-4-oxo-3,4-dihydroquinazolin-2-yl)-2-(3,5-difluorophenyl)ethyl)-2-((3bS,4aR)-3-(difluoromethyl)-5,5-difluoro-3b,4,4a,5-tetrahydro-1H-cyclopropa[3,4]cyclopenta[1,2-c]pyrazol-1-yl)acetamide], the CC50 at 4 days [1] was > 500 nM and the EC50 [2] was 0.058 nM.

For `O=C(Cn1nc(C(F)F)c2c1C(F)(F)[C@@H]1C[C@H]21)N[C@@H](Cc1cc(F)cc(F)c1)c1nc2cc(-c3nccc(C(F)(F)F)n3)ccc2c(=O)n1-c1ccc(Cl)c2c(NS(=O)(=O)C3CC3)nn(CC(F)F)c12` (atropisomer, axis not shown; (P)) [Example 84, N—((S)-1-((3P)-3-(4-chloro-3-(cyclopropanesulfonamido)-1-(2,2-difluoroethyl)-1H-indazol-7-yl)-4-oxo-7-(4-(trifluoromethyl)pyrimidin-2-yl)-3,4-dihydroquinazolin-2-yl)-2-(3,5-difluorophenyl)ethyl)-2-((3bS,4aR)-3-(difluoromethyl)-5,5-difluoro-3b,4,4a,5-tetrahydro-1H-cyclopropa[3,4]cyclopenta[1,2-c]pyrazol-1-yl)acetamide], the CC50 at 4 days [1] was > 500 nM and the EC50 [2] was 0.22 nM.

With `Cc1nc(-c2ccc3c(=O)n(-c4ccc(Cl)c5c(NS(C)(=O)=O)nn(C)c45)c([C@H](Cc4cc(F)cc(F)c4)NC(=O)Cn4nc(C(F)F)c5c4C(F)(F)[C@@H]4C[C@H]54)nc3c2)cc(C(F)(F)F)n1` (atropisomer, axis not shown; (P)) [Example 63, N—((S)-1-((3P)-3-(4-chloro-1-methyl-3-(methylsulfonamido)-1H-indazol-7-yl)-7-(2-methyl-6-(trifluoromethyl)pyrimidin-4-yl)-4-oxo-3,4-dihydroquinazolin-2-yl)-2-(3,5-difluorophenyl)ethyl)-2-((3bS,4aR)-3-(difluoromethyl)-5,5-difluoro-3b,4,4a,5-tetrahydro-1H-cyclopropa[3,4]cyclopenta[1,2-c]pyrazol-1-yl)acetamide] the CC50 at 4 days [1] was > 500 nM and the EC50 [2] was 0.33 nM.

In the case of `Cc1cc(C)c(C(F)(F)F)c(-c2ccc3c(=O)n(-c4ccc(Cl)c5c(NS(C)(=O)=O)nn(C)c45)c([C@H](Cc4cc(F)cc(F)c4)NC(=O)Cn4nc(C(F)F)c5c4C(F)(F)[C@@H]4C[C@H]54)nc3c2)n1` (atropisomer, axis not shown; (P)) [Example 52, N—((S)-1-((3P)-3-(4-chloro-1-methyl-3-(methylsulfonamido)-1H-indazol-7-yl)-7-(4,6-dimethyl-3-(trifluoromethyl)pyridin-2-yl)-4-oxo-3,4-dihydroquinazolin-2-yl)-2-(3,5-difluorophenyl)ethyl)-2-((3bS,4aR)-3-(difluoromethyl)-5,5-difluoro-3b,4,4a,5-tetrahydro-1H-cyclopropa[3,4]cyclopenta[1,2-c]pyrazol-1-yl)acetamide], the CC50 at 4 days [1] is reported as > 500 nM and the EC50 [2] is reported as 0.48 nM.

With `CC(C)c1nccnc1-c1ccc2c(=O)n(-c3ccc(Cl)c4c(NS(C)(=O)=O)nn(C)c34)c([C@H](Cc3cc(F)cc(F)c3)NC(=O)Cn3nc(C(F)F)c4c3C(F)(F)[C@@H]3C[C@H]43)nc2c1` (atropisomer, axis not shown; (P)) [Example 16, N—((S)-1-((3P)-3-(4-chloro-1-methyl-3-(methylsulfonamido)-1H-indazol-7-yl)-7-(3-isopropylpyrazin-2-yl)-4-oxo-3,4-dihydroquinazolin-2-yl)-2-(3,5-difluorophenyl)ethyl)-2-((3bS,4aR)-3-(difluoromethyl)-5,5-difluoro-3b,4,4a,5-tetrahydro-1H-cyclopropa[3,4]cyclopenta[1,2-c]pyrazol-1-yl)acetamide] the CC50 at 4 days [1] was > 500 nM and the EC50 [2] was 0.12 nM.

With `Cc1ccc(-c2ccc3c(=O)n(-c4ccc(Cl)c5c(NS(C)(=O)=O)nn(CC(F)F)c45)c([C@H](Cc4cc(F)cc(F)c4)NC(=O)Cn4nc(C(F)F)c5c4C(F)(F)[C@@H]4C[C@H]54)nc3c2)nn1` (atropisomer, axis not shown) [Example 134, N-[(1S)-1-{3-[4-chloro-1-(2,2-difluoroethyl)-3-methanesulfonamido-1H-indazol-7-yl]-7-(6-methylpyridazin-3-yl)-4-oxo-3,4-dihydroquinazolin-2-yl}-2-(3,5-difluorophenyl)ethyl]-2-[(2S,4R)-9-(difluoromethyl)-5,5-difluoro-7,8-diazatricyclo[4.3.0.0^2,^4]nona-1(6),8-dien-7-yl]acetamide] the CC50 at 4 days [1] was > 500 nM and the EC50 [2] was 0.032 nM.

In the case of `CC(C)(C)S(=O)(=O)c1cccc(-c2ccc3c(=O)n(-c4ccc(Cl)c5c(NS(C)(=O)=O)nn(CC(F)F)c45)c([C@H](Cc4cc(F)cc(F)c4)NC(=O)Cn4nc(C(F)F)c5c4C(F)(F)[C@@H]4C[C@H]54)nc3c2)c1` (atropisomer, axis not shown) [Example 127], the CC50 at 4 days [1] is reported as > 500 nM and the EC50 [2] is reported as 0.14 nM.

With `Cc1ncc(C)c(-c2ccc3c(=O)n(-c4ccc(Cl)c5c(NS(C)(=O)=O)nn(C)c45)c([C@H](Cc4cc(F)cc(F)c4)NC(=O)Cn4nc(C(F)F)c5c4C(F)(F)[C@@H]4C[C@H]54)nc3c2)n1` (atropisomer, axis not shown; (P)) [Example 77, N—((S)-1-((3P)-3-(4-chloro-1-methyl-3-(methylsulfonamido)-1H-indazol-7-yl)-7-(2,5-dimethylpyrimidin-4-yl)-4-oxo-3,4-dihydroquinazolin-2-yl)-2-(3,5-difluorophenyl)ethyl)-2-((3bS,4aR)-3-(difluoromethyl)-5,5-difluoro-3b,4,4a,5-tetrahydro-1H-cyclopropa[3,4]cyclopenta[1,2-c]pyrazol-1-yl)acetamide] the CC50 at 4 days [1] was > 500 nM and the EC50 [2] was 0.071 nM.
